Structures are written as SMILES. pIC50: −log10 of the molar value.

In general, pIC50 refers to the IC50 on a negative log10 scale, so that one unit is a factor of ten. A low value points to a high IC50.

Common to all, as to assay type: functional, cell-based
One assay concerns KB. Kind of assay: Cytotoxicity against human KB cells after 72 hrs by MTT assay. (In general: Tetrazolium dyes change colour on reduction, which living cells bring about.)
Assay [1] in a line: Cytotoxicity against human BEL-7404 cells after 72 hrs by MTT assay. As to conditions: BEL-7404, 72 h.
Another assay concerns A549. The assay can be described thus: Cytotoxicity against human A549 cells after 72 hrs by MTT assay. The settings on record: A549, 72 h.
The next assay concerns HL-60. Kind of assay: Cytotoxicity against human HL-60 cells after 72 hrs by MTT assay. The settings on record: HL-60, 72 h.

Consider `COc1cc2c(cc1OC)[C@H](c1ccc(OC)c(OC/C=C(\C)CC/C=C(\C)CCC=C(C)C)c1)[C@H]1C(=O)OC[C@@H]1C2` (racemic), for which the results for the pIC50 (with KB; in assay [1]) were 5.42 and 5.25, respectively.
As for `COC(=O)[C@H]1[C@H](CO)Cc2cc(OC)c(OC)c(OC)c2[C@@H]1c1ccc(O)c(OC)c1` (racemic), the negative-log IC50 (pIC50) in the assay with A549 is 4.84.
On to `COc1cc2c(cc1OC)[C@H](c1ccc(OCc3ccccc3)c(OC)c1)[C@H]1C(=O)OC[C@@H]1C2` (racemic), for which the negative logarithm of the IC50 (pIC50) in the assay with KB is 5.58; in assay [1] it was 4.83.
For the compound `COC(=O)[C@H]1[C@H](CO)Cc2cc(OC)c(OC)c(OC)c2[C@@H]1c1ccc(OC/C=C(\C)CCC=C(C)C)c(OC)c1` (racemic), in the assay with HL-60, the pIC50 is 5.34.
On to `COc1cc([C@@H]2c3cc4c(cc3[C@@H](O[C@@H]3O[C@@H]5CO[C@@H](C)O[C@H]5[C@H](O)[C@H]3O)[C@H]3COC(=O)[C@H]23)OCO4)cc(OC)c1O` [ETOPOSIDE], for which, in the assay with HL-60, the pIC50 was 4.98.

The values are drawn from ChEMBL document CHEMBL1158034, “Synthesis and cytotoxicity of racemic isodeoxypodophyllotoxin analogues with isoprene-derived side chains” (J Nat Prod, 2006).
